Measured values reported in patent publication US20230159510A1, “NOVEL PRMT5 INHIBITORS” (AMGEN INC., priority 2020, published 2023).

What was measured:
[1] = target: PRMT5/MEP50 (Homo sapiens, UniProt O14744); experiment: MTase-Glo methyl transferase assay, Method A (Histone H4 peptide, 1 µM MTA, 24 h pre-incubation); format: biochemical; set-up: made in house; conditions: read-out: PRMT5 MTase Glo Ki (nM, Meth. A)
Method in brief: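 PRMT5/MEP50 (10 nM) pre-incubated 24 h with compound, 5 µM SAM and 1 µM MTA, then reaction started with 1 µM Histone H4 (1-21) peptide and run 2 h at room temperature in Tris pH 8.0 buffer. SAH formed detected by MTase-Glo luminescence; IC50 and KI from dose-response curves.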

[2] = system: HCT116 MTAP null cells; experiment: HCT116 proliferation assay, MTAP null cells (CellTiter-Glo, 6 days); format: cell-based; conditions: HCT116-MTAP null, 144 h, read-out: Protif_ HCT116-MTAP null IC50
Method in brief: (§1)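 Both lines grow in RPMI 1640 containing 10% fetal bovine serum. After an overnight rest, they receive compound at up to 1 or 10 µM in threefold serial dilutions, with vehicle wells holding DMSO only.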

[3] = system: HCT116 WT cells; experiment: HCT116 proliferation assay, WT cells (CellTiter-Glo, 6 days); format: cell-based; conditions: Homo sapiens, HCT-116, 144 h, read-out: Prolif_HCT116-WT IC50
Method in brief: as §1

PRMT5/MEP50, sequence (O14744 whole entry): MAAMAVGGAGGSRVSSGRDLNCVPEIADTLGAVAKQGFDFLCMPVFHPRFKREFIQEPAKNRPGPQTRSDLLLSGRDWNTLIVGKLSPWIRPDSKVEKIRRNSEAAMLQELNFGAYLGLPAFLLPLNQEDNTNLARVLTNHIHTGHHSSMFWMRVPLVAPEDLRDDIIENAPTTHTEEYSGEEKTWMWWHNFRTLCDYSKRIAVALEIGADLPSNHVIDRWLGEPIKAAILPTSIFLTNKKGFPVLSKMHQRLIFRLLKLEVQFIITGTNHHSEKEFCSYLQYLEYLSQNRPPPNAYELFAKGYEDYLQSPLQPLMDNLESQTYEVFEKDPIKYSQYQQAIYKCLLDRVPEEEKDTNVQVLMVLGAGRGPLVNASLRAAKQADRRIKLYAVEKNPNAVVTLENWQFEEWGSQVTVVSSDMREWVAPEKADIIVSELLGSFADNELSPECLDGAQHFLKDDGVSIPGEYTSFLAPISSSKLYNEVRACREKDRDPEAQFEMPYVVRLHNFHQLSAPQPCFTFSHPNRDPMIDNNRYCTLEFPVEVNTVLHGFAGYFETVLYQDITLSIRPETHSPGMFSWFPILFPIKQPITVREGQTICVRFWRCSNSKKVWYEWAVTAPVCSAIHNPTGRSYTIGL
PRMT5/MEP50, sequence (Q9BQA1 whole entry partner): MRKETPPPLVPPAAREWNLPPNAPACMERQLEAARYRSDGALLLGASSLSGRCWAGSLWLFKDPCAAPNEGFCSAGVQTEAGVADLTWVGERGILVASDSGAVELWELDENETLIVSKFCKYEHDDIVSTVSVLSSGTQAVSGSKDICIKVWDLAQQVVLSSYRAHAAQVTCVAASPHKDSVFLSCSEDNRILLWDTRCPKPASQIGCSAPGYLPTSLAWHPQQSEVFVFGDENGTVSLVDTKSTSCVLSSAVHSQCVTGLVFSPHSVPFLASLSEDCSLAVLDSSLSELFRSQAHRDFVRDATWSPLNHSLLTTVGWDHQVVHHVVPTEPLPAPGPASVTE

Row | Ki [1] | IC50 [2] | IC50 [3] | SMILES
1 | 0.37 nM | 198 nM | > 10000 nM | Cc1cc2cc(C(=O)N(Cc3ccc(C(F)(F)F)cn3)[C@H](C)c3ncccc3F)cnc2nc1N [Example 389, 7-amino-N-((1R)-1-(3-fluoro-2-pyridinyl)ethyl)-6-methyl-N-((5-(trifluoromethyl)-2-pyridinyl)methyl)-1,8-naphthyridine-3-carboxamide]
2 | 0.01 nM | 165 nM | 4800 nM | Cc1cc2cc(C(=O)N(Cc3ncc(C(F)(F)F)cc3F)[C@H](C)c3ncccc3F)ccc2nc1N [Example 391, 2-amino-N-((1R)-1-(3-fluoro-2-pyridinyl)ethyl)-N-((3-fluoro-5-(trifluoromethyl)-2-pyridinyl)methyl)-3-methyl-6-quinolinecarboxamide]
3 | 0.27 nM | 793 nM | > 10000 nM | Cc1cc2cc(C(=O)N(Cc3ncc(C(F)(F)F)cc3Cl)[C@H](C)c3ncccc3F)ccc2nc1N [Example 396, 2-amino-N-((3-chloro-5-(trifluoromethyl)-2-pyridinyl)methyl)-N-((1R)-1-(3-fluoro-2-pyridinyl)ethyl)-3-methyl-6-quinolinecarboxamide]
4 | 0.23 nM | 286 nM | 7960 nM | C[C@H](c1ncccc1F)N(Cc1ccc(C(F)(F)F)nn1)C(=O)c1cnc2nc(N)c(Br)cc2c1 [Example 397, 7-amino-6-bromo-N-((1R)-1-(3-fluoro-2-pyridinyl)ethyl)-N-((6-(trifluoromethyl)-3-pyridazinyl)methyl)-1,8-naphthyridine-3-carboxamide]
5 | 0.05 nM | 41 nM | 960 nM | Cc1cc2cc(C(=O)N(Cc3ccc(Br)cn3)[C@H](C)c3ncccc3F)ccc2nc1N [Example 400, 2-amino-N-((5-bromo-2-pyridinyl)methyl)-N-((1R)-1-(3-fluoro-2-pyridinyl)ethyl)-3-methyl-6-quinolinecarboxamide]
6 | 0.47 nM | 682 nM | > 10000 nM | C[C@H](c1ncccn1)N(Cc1ccc(C#N)cn1)C(=O)c1cnc2nc(N)c(Br)cc2c1 [Example 406, 7-amino-6-bromo-N-((5-cyano-2-pyridinyl)methyl)-N-((1R)-1-(2-pyrimidinyl)ethyl)-1,8-naphthyridine-3-carboxamide]
7 | 0.11 nM | 291 nM | > 10000 nM | C[C@H](c1ncccn1)N(Cc1ccc(C(F)F)cn1)C(=O)c1cnc2nc(N)c(Br)cc2c1 [Example 407, 7-amino-6-bromo-N-((5-(difluoromethyl)-2-pyridinyl)methyl)-N-((1R)-1-(2-pyrimidinyl)ethyl)-1,8-naphthyridine-3-carboxamide]

Second part, the molecule before the results:

Row | SMILES | Ki [1] | IC50 [2] | IC50 [3]
8 | Cc1cc2cc(C(=O)N(Cc3ccc(C(F)(F)F)cn3)[C@@H]3CCCc4cccnc43)ccc2nc1N [Example 390, 2-amino-3-methyl-N-((8R)-5,6,7,8-tetrahydro-8-quinolinyl)-N-((5-(trifluoromethyl)-2-pyridinyl)methyl)-6-quinolinecarboxamide] | 0.25 nM | 23 nM | 460 nM
9 | Cc1cc([C@@H](C)N(Cc2ccc(C(F)(F)F)cn2)C(=O)c2ccc3nc(N)c(C)cc3c2)no1 [Example 392, 2-amino-3-methyl-N-((1R)-1-(5-methyl-1,2-oxazol-3-yl)ethyl)-N-((5-(trifluoromethyl)-2-pyridinyl)methyl)-6-quinolinecarboxamide] | 0.5 nM | 193 nM | 6860 nM
10 | Cc1cc2cc(C(=O)N(Cc3ncccc3F)[C@H](C)c3ccc(C(F)(F)F)cn3)ccc2nc1N [Example 393, 2-amino-N-((3-fluoro-2-pyridinyl)methyl)-3-methyl-N-((1R)-1-(5-(trifluoromethyl)-2-pyridinyl)ethyl)-6-quinolinecarboxamide] | 0.22 nM | 342 nM | 8210 nM
11 | Cc1cc2cc(C(=O)N(Cc3ccc(Br)cn3)[C@H](C)c3ncccc3Cl)ccc2nc1N [Example 394, 2-amino-N-((5-bromo-2-pyridinyl)methyl)-N-((1R)-1-(3-chloro-2-pyridinyl)ethyl)-3-methyl-6-quinolinecarboxamide] | 0.12 nM | 384 nM | > 10000 nM
12 | Cc1cc2cc(C(=O)N(Cc3ccc(C(F)(F)F)nn3)[C@@H]3CCc4cccnc43)ccc2nc1N [Example 395, 2-amino-N-((7R)-6,7-dihydro-5H-cyclopenta[b]pyridin-7-yl)-3-methyl-N-((6-(trifluoromethyl)-3-pyridazinyl)methyl)-6-quinolinecarboxamide] | 0.16 nM | 82 nM | 2370 nM
13 | Cc1cc2cc(C(=O)N(Cc3ccc(Cl)cn3)[C@H](C)c3ncccc3F)ccc2nc1N [Example 401, 2-amino-N-((5-chloro-2-pyridinyl)methyl)-N-((1R)-1-(3-fluoro-2-pyridinyl)ethyl)-3-methyl-6-quinolinecarboxamide] | 0.08 nM | 51 nM | 1570 nM
14 | Cc1cc2cc(C(=O)N(Cc3ccc(Br)cn3)[C@H](C)c3ncccn3)ccc2nc1N [Example 402] | 0.04 nM | 15 nM | 526 nM
15 | COC(=O)c1ccc(CN(C(=O)c2ccc3nc(N)c(C)cc3c2)[C@H](C)c2ncccc2F)nc1 [Example 403, methyl 6-((((2-amino-3-methyl-6-quinolinyl)carbonyl)((1R)-1-(3-fluoro-2-pyridinyl)ethyl)amino)methyl)-3-pyridinecarboxylate] | 0.55 nM | 263 nM | 8880 nM
16 | Cc1cc2cc(C(=O)N(Cc3ccc(C#N)cn3)[C@H](C)c3ncccn3)c(F)cc2nc1N [Example 404, 2-amino-N-((5-cyano-2-pyridinyl)methyl)-7-fluoro-3-methyl-N-((1R)-1-(2-pyrimidinyl)ethyl)-6-quinolinecarboxamide] | 1.68 nM | 90 nM | 3160 nM
17 | Cc1cc2cc(C(=O)N(Cc3ccc(C#N)cn3)[C@H](C)c3ccccc3F)ccc2nc1N [Example 405, 2-amino-N-((5-cyano-2-pyridinyl)methyl)-N-((1R)-1-(2-fluorophenyl)ethyl)-3-methyl-6-quinolinecarboxamide] | 0.03 nM | 54 nM | 1040 nM
18 | C[C@H](c1ncccn1)N(Cc1ccc(C#N)cn1)C(=O)c1ccc2nc(N)c(Cl)cc2c1 [Example 408, 2-amino-3-chloro-N-((5-cyano-2-pyridinyl)methyl)-N-((1R)-1-(2-pyrimidinyl)ethyl)-6-quinolinecarboxamide] | 0.13 nM | 597 nM | > 10000 nM
19 | Cc1cc2cc(C(=O)N(Cc3ccc(C(F)F)cn3)[C@H](C)c3ncccn3)cnc2nc1N [Example 409, 7-amino-N-((5-(difluoromethyl)-2-pyridinyl)methyl)-6-methyl-N-((1R)-1-(2-pyrimidinyl)ethyl)-1,8-naphthyridine-3-carboxamide] | 0.24 nM | 692 nM | > 10000 nM
20 | C[C@H](c1ncccn1)N(Cc1ccc(C(F)F)cn1)C(=O)c1ccc2nc(N)c(Br)cc2c1 [Example 410, 2-amino-3-bromo-N-((5-(difluoromethyl)-2-pyridinyl)methyl)-N-((1R)-1-(2-pyrimidinyl)ethyl)-6-quinolinecarboxamide] | 0.04 nM | 88 nM | 5390 nM
